Data published in paper PMC9785441, “A Broad Spectrum Antiparasitic Activity of Organotin (IV) Derivatives and Its Untargeted Proteomic Profiling Using Leishmania donovani” (Pathogens, 2022).
“Also recorded” adds a separate entry of the source.

Tests used:
[1] = Cytotoxicity to B10R host cells (nuclei count in the amastigote assay); assay type: cell-based; conditions: mouse, B10R monocyte cells co-cultured with L. donovani parasites
Experimental: For the intracellular amastigote stage assay, L. donovani was incubated at a density of 1 × 10^6 parasites/mL for six days at 29 °C before infection to enrich the proportion of metacyclic promastigotes. B10R monocyte cell lines were cultured in RPMI supplemented with 10% FBS and 1%penicillin/streptomycin at 37 °C in 5% CO2. After 72 h, cells were counted with a hemocytometer and mixed with the six-day-old parasites. […] Plates were incubated at 37 °C and 5% CO2 for 72 h. Cultures were then fixed with 4% formaldehyde solution for 30 min and stained with 0.5 µg/mL DAPI (diamidino-2-phenylindole). Plates were then imaged using an ImageXpress Micro XLS automated high content imager (Molecular Devices, San Jose, CA, USA) using a 10× air objective. A custom image analysis module generated in ImageXpress was used to count the nuclei of host and parasite cells. EC50 values were obtained using the GraphPad Prism 9 Software with biological triplicates.

[2] = HEK293 cytotoxicity assay (resazurin); assay type: cell-based; conditions: HEK-293T cells, human embryonic kidney cells, max 4 µM, read-out: CC50 HEK923
Experimental: HEK-293T cells were cultured in DMEM (Gibco) supplemented with 10% heat inactivated FBS (Corning) and 1% penicillin-streptomycin (Gibco). Cells were maintained in vented T75 cell culture flasks (Thermo Scientific, Cat. 12-565-349) at 37 °C and 5% CO2, and were passaged every 72 h. […] Compounds were diluted with fresh DMEM (49 µL/well). HEK-293 cells were suspended at 4 × 10^5 cells/mL in DMEM and added to each well (50 µL/well) to give 2 × 10^4 cells/well. Assay plates were incubated at 37 °C and 5% CO2 for 48 h, followed by addition of 20 µL of 0.5 mM resazurin (Alfa Aesar, Cat. B21187) in PBS to each well. […] In each assay plate, cell viability was normalized relative to positive and negative controls. Assays were performed in biological and technical duplicates, and dose–response and CC50 data were generated with GraphPad Prism 5 using a sigmoidal four parameter logistic curve.

[3] = test system: L. donovani-infected B10R cells; experiment: Untargeted proteomics of L. donovani-infected B10R cells treated and untreated with MS26Et3; assay type: cell-based, mouse / Leishmania donovani; conditions: L. donovani-infected B10R cells exposed to compound vs not exposed
Experimental: B10R culture cells (infected or uninfected with Leishmanaia donovani) were collected and washed twice in cold PBS. The cell pellets (~10^6 cells/pellet) were snap-frozen and stored at −80 °C. To extract the proteins, pellets were thawed, and the cells were resuspended in 200 µL buffer containing 6 M urea, 7% SDS, 50 mM TEAB, protease inhibitor cocktail (Roche, cat. no. A32963), phosphatase inhibitor (Roche, cat. no. A32957), with pH adjusted to 8.1 with phosphoric acid. The cells were then lysed using a sonicating probe 200 µL. The samples were reduced in 500 mM DTT at 47 °C for 30 min and alkylated in 500 mM IAA in the absence of light, at room temperature for 45 min, followed by quenching in 500 mM DTT for 5 min. The samples were then acidified with 12% phosphoric acid and mixed in a 7:1 ratio with binding buffer containing 90% methanol, 50 mM TEAB, pH 7.1, adjusted with phosphoric acid and loaded on to S-Trap columns (Protifi). […] The concentration of desalted peptides was determined and 50 µg aliquots of each sample were dried in a speed vacuum concentrator. […]
Basic pH reverse-phase LC and data acquisition through LC–MS2/MS3 were performed as previously described. […] Fractions were then analyzed using tandem mass spectrometry (MS2/MS3) on an Orbitrap Fusion mass spectrometer (ThermoFisher, Waltham, MA, USA) with an in-line EASY-nLC 1000 instrument (ThermoFisher, Waltham, MA, USA). […]

SMILES	CC50 at 72 h [1]	CC50 at 48 h [2]	Rab7 expression / abundance [3]
COc1ccc(NC(=O)CCC(=O)O)cc1 [MS26, 4-(4-methoxyphenylamino)-4 oxobutanoic acid]	2.38 µM	> 4 µM	–
C[CH2][Sn]([CH2]C)([CH2]C)[O]C(=O)CCC(=O)Nc1ccc(OC)cc1 [MS26Et3]	–	–	reduced expression; also recorded: differentially expressed; also recorded: decreased in abundance
